Assay results reported in patent publication US20080200507A1, “Crystalline Non-Solvated Methanesulfonic Acid Salt of 1-(4-(2-Piperidinylethoxy)Phenoxy)-2-(3-Hydroxyphenyl)-6-Hydroxynaphthalene” (priority 2005, published 2008).
Counter-ions that a name gives are not always drawn.

Columns and labels:
[1] = molecular target: endogenous ER receptors in Ishikawa human endometrial tumor cells (Homo sapiens, UniProt P03372); test: Ishikawa Cell Proliferation Assay (alkaline phosphatase endpoint), agonist and antagonist mode; format: cell-based; details: read-out: agonist response (percentage efficacy versus tamoxifen)
Sequence of endogenous ER receptors in Ishikawa human endometrial tumor cells (P03372 whole entry): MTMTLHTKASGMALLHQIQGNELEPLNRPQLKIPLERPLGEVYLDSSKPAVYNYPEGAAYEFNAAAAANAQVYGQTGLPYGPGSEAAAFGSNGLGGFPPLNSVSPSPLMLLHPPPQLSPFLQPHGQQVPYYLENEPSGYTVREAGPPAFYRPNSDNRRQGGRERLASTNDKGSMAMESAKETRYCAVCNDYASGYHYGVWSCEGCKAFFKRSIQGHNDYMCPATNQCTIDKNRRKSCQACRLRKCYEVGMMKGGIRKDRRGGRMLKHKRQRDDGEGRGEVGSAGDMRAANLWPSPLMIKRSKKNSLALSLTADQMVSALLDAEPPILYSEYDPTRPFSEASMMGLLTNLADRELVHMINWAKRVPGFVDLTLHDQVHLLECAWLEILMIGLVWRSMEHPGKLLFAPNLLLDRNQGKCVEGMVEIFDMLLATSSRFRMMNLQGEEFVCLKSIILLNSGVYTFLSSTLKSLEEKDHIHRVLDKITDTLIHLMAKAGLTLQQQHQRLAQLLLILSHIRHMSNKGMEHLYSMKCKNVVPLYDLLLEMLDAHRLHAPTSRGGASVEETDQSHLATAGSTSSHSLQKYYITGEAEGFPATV
Method: Ishikawa Cell Proliferation Assay:
This assay measures cell proliferation in both an agonist mode in the presence of a salt of the present invention alone, and in an antagonist mode in which the ability of a salt of the present invention to block estradiol stimulation of growth is measured. This assay utilizes Ishikawa human endometrial tumor cells and measures agonist and antagonist effects on endogenous ER receptors via an alkaline phosphatase endpoint (Littlefield et al., Endocrinology, 127:2757-2762, 1990). Alkaline phosphatase activity is measured as an endpoint for relative estrogenic stimuli in both an agonist mode and antagonist mode, where the ability of a test compound to block estradiol stimulatory activity is measured (Bramlett, K S, Burris, J., Steroid Biochem. Molec. Biol., 86:27-34, 2003). […]
The plates are dried for 5 minutes and frozen at −70° C. for at least 1 hour. […] After a twenty minute incubation, plates are read on a spectrophotometer at 405 nm. […] For the agonist mode, a percentage efficacy for the test compound is calculated versus the response to 100 nM tamoxifen alkaline phosphatase stimulation as: 100×(test compound-control)/(tamoxifen-control). For the antagonist mode, a percentage efficacy for the test compound is calculated versus E2 (1 nM) alone as: 100×(E2-test compound)/(E2-control).

[2] = tested on: estrogen-induced response (uterine weight/body weight ratio) in female Sprague Dawley (SD) rats; test: 3-Day Rat Uterine Antagonist; format: in vivo; details: 72 h, oral, 3 days, with EE 0.1 mg/kg, two assays, same value on both occasions, read-out: ED50 (inhibition of estrogen-induced uterine weight response)
Method: 3-Day Rat Uterine Antagonist
Female Sprague Dawley (SD) rats, 6 per group and 19 to 21 days of age, are orally treated with ethinyl estradiol (EE; 0.1 mg/kg) and 10, 1, 0.1, or 0.01 mg/kg test compound for 3 days. Test compound is dissolved in 20% w/v β-hydroxycyclodextrin in water and administered by oral gavage in a volume of 0.2 mL daily (15 minutes prior to the EE gavage). Groups of 6 rats are also given vehicle as a negative control and EE alone as a positive control. The animals are fasted overnight following the final dose. On the following morning, the animals are weighed and then euthanized (by carbon dioxide asphyxiation) and the uteri are rapidly collected (via a midline ventral incision), stripped of adipose tissue, removed luminal fluid by blotting onto absorbant paper, and weighed.
Uterine weight/body weight ratios (UWR) are calculated for each animal. The percentage inhibition of the estrogen-induced response is then calculated by the following formula: percent inhibition=100×(UWREE−UWRtest compound/UWREE−UWRcontrol). ED50 values are derived from a semi-log regression analysis of the linear aspect of the dose response curve.

[3] = tested on: ovariectomized SD female rats (uterine wet weight, BMC, BMD); test: 8-Week Mature OVX Rat Uterine and Bone Effects; format: in vivo
Method: 8-Week Mature OVX Rat Uterine and Bone Effects
Virgin 6-month-old, SD female rats (Harlan, Ind.) weighing about 270 g are randomized to treatment groups and bilateral ovariectomies are performed using isoflurane anesthesia. Treatment is initiated 3 days after ovariectomy. Groups are orally dosed each day for 8 weeks with GS II mesylate in a vehicle of 20% hydroxypropyl-β-cyclodextrin (Aldrich Chemical Co., Milwaukee, Wis.). Vertebrae and femora are excised at necropsy and the mid-transverse section of the lumbar vertebra L-4 and distal femur metaphysis is scanned in 50% ethanol/saline, using quantitative computed tomography (QCT) (Research M, Norland/Stratec, Pt. Atkinson, Wis.). Cross-sectional area (X-Area), bone mineral content (BMC, mg), and volumetric BMD (vBMD, mg/cm^3) are quantitated, using voxel dimensions of 148×148×500 μm as previously described (Sato M., Bone, 17:157S-162S, 1995). Bone measurements are carried out by computed tomography (CT) scans on the distal femur metaphysis (cancelous bone measurement) and the […] lumbar vertebrae (Sato, 1995 and Sato, et al., J. Med. Chem., 42:1-24, 1999).

[4] = Salt forms administered to monkeys, blood levels of GS II and its conjugates; format: in vivo; details: compared among crystalline acetate, mesylate, lactate and phosphate salts, methanesulfonate
Method: Four of these salts (the crystalline acetate, mesylate, lactate and phosphate salts of GS II) were administered to monkeys and blood levels of GS II and its conjugates were measured. […] Some additional physical properties of crystalline non-solvated GS II mesylate are disclosed below in Table 1.

[5] = Thermogravimetric analysis (volatiles / weight loss); format: physicochemical; details: 25 to 216° C.
[6] = Moisture adsorption / hygroscopicity; format: physicochemical
[7] = In situ salt screening, aqueous in situ solubility; format: physicochemical; details: crystalline salts
Source text: In general, as aqueous solubility increases, the potential for absorption of the drug in the gut (and ultimate bioavailability) increases as well. Higher bioavailability can result in lower variability in clinical exposure and thus give the physician an advantage in correctly dosing-the patient within the therapeutic window. Using the aqueous in situ solubility as a guide, and the robustness of the same crystalline form isolated via automation, the crystalline mesylate, lactate, tartrate and phosphate salts of GS II were identified as candidates for further evaluation. Separately, the crystalline acetate salt of GS II was identified and also further characterized.

[8] = dose as low as 0.01 mg/kg, 8 weeks (distal femur metaphysis)

Oc1cccc(-c2ccc3cc(O)ccc3c2Oc2ccc(OCCN3CCCCC3)cc2)c1 [crystalline non-solvated GS II mesylate, 1-(4-(2-piperidinylethoxy)phenoxy)-2-(3-hydroxyphenyl)-6-hydroxynaphthalene, methanesulfonate]
Emax [1]: 13.8%
ED50 [2]: 0.22 mg/kg
BMC changes in the vertebrae ([3]; 8 weeks, lumbar vertebra): statistical significance for BMC changes were not achieved
BMD preservation in the vertebrae ([3]; 8 weeks, lumbar vertebra): BMD preservation was also seen
uterine stimulation over OVX control ([3]; 10-mg/kg dose, 8 weeks, in comparison to ovary intact (sham operated) rats): 8.7%
preservation of BMC [3, 8]: significant preservation
preservation of BMD [3, 8]: significant preservation
Changes in uterine wet weight ([3]; oral daily, after 8 weeks of treatment): minimal
in vivo exposure of GS II (ng hr/ml of GS II and of its conjugates) ([4]; listed as crystalline mesylate salt): largest in vivo exposure
in vivo exposure of GS II (ng hr/ml of GS II and of its conjugates) [4]: significant in vivo exposure
% Volatiles (Thermo Gravimetric Analysis) [5]: <1% (25 to 216° C.)
hygroscopicity [6]: non-hygroscopic
% Moisture Adsorbed @80% RH ([6]; 80% RH): <1%

fumarate
in situ aqueous solubility [7]: relatively low

tosylate
in situ aqueous solubility [7]: relatively low
